Measured values published in ChEMBL document CHEMBL1201862, “PubChem BioAssay data set” (2004).
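All cell lines were grown in 96-well plates and treated with compound for 48 hours. Abbreviation: GI50, concentration required for 50% inhibition of growth.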 The source made the active and inactive calls. Rule as the data show it: active = GI50 up to about 1.1 µM and inactive = higher.

Legend:
Assay in all cases: inhibition of tumour cell growth, NCI panel, 48 h
SR = tested on: SR
UACC-62 = tested on: UACC-62
NCI-H226 = tested on: NCI-H226
BT-549 = tested on: BT-549
HCC 2998 = tested on: HCC 2998
CCRF-CEM = tested on: CCRF-CEM
MCF7 = tested on: MCF7
NCI-H23 = tested on: NCI-H23
SF-268 = tested on: SF-268
ACHN = tested on: ACHN
786-0 = tested on: 786-0
UACC-257 = tested on: UACC-257
SNB-75 = tested on: SNB-75
K562 = tested on: K562
SF-539 = tested on: SF-539
OVCAR-4 = tested on: OVCAR-4
CAKI-1 = tested on: CAKI-1
MDA-MB-435 = tested on: MDA-MB-435
NCI-H522 = tested on: NCI-H522
HOP-92 = tested on: HOP-92
RXF 393 = tested on: RXF 393
A498 = tested on: A498
HCT-15 = tested on: HCT-15
SK-MEL-28 = tested on: SK-MEL-28
EKVX = tested on: EKVX
KM12 = tested on: KM12
A549 = tested on: A549
OVCAR-5 = tested on: OVCAR-5
HCT-116 = tested on: HCT-116
RPMI-8226 = tested on: RPMI-8226
MOLT-4 = tested on: MOLT-4
SK-OV-3 = tested on: SK-OV-3
MDA-N = tested on: MDA-N
NCI/ADR-RES = tested on: NCI/ADR-RES
U-251 = tested on: U-251
M14 = tested on: M14
T47D = tested on: T47D
NCI-H460 = tested on: NCI-H460
SN12C = tested on: SN12C
Malme-3M = tested on: Malme-3M
OVCAR-3 = tested on: OVCAR-3
PC-3 = tested on: PC-3
HOP-62 = tested on: HOP-62
OVCAR-8 = tested on: OVCAR-8
COLO 205 = tested on: COLO 205
DU-145 = tested on: DU-145
UO-31 = tested on: UO-31
SF-295 = tested on: SF-295
MDA-MB-231 = tested on: MDA-MB-231
SNB-19 = tested on: SNB-19
SK-MEL-2 = tested on: SK-MEL-2
SK-MEL-5 = tested on: SK-MEL-5
TK-10 = tested on: TK-10
SW-620 = tested on: SW-620
LOX IMVI = tested on: LOX IMVI
HT-29 = tested on: HT-29
HL-60 = tested on: HL-60
IGROV-1 = tested on: IGROV-1

Measured: GI50

Cc1sc(Nc2ccccc2[N+](=O)[O-])c(C#N)c1C
active: Malme-3M 0.0556 µM
23 µM: HCT-15
inactive: SR > 100 µM | UACC-62 77.8 µM | NCI-H226 39.7 µM | BT-549 19.5 µM | HCC 2998 > 100 µM | CCRF-CEM > 100 µM | MCF7 94.2 µM | NCI-H23 13.9 µM | SF-268 14.5 µM | ACHN 31 µM | 786-0 22.6 µM | UACC-257 > 100 µM | SNB-75 12.1 µM | K562 > 100 µM | SF-539 21.5 µM | OVCAR-4 43.6 µM | CAKI-1 17.1 µM | MDA-MB-435 > 100 µM | NCI-H522 2.7 µM | HOP-92 18.7 µM | RXF 393 5.12 µM | A498 29.4 µM | SK-MEL-28 99.3 µM | EKVX 35.4 µM | KM12 > 100 µM | A549 > 100 µM | OVCAR-5 23 µM | HCT-116 17.5 µM | RPMI-8226 > 100 µM | MOLT-4 > 100 µM | SK-OV-3 66.1 µM | MDA-N > 100 µM | NCI/ADR-RES 16.8 µM | U-251 21.3 µM | M14 > 100 µM | T47D 28.4 µM | NCI-H460 > 100 µM | SN12C 40.3 µM | OVCAR-3 19.8 µM | PC-3 94.8 µM | HOP-62 20.8 µM | OVCAR-8 27.7 µM | COLO 205 > 100 µM | DU-145 65.2 µM | UO-31 > 100 µM | SF-295 26.2 µM | MDA-MB-231 19.6 µM | SNB-19 26.2 µM

O=C(CN1CCCCC1)Nc1ccc2c(c1)C1Oc3ccccc3CC1CO2 (stereo unspecified)
inactive: SR 23.2 µM | UACC-62 16.4 µM | NCI-H226 21 µM | BT-549 19.9 µM | HCC 2998 19.1 µM | CCRF-CEM 34.3 µM | MCF7 21.8 µM | NCI-H23 24.9 µM | SF-268 34.2 µM | 786-0 20.7 µM | UACC-257 19.2 µM | SK-MEL-2 20.2 µM | K562 58.9 µM | SF-539 19.1 µM | SK-MEL-5 13.8 µM | CAKI-1 35.9 µM | MDA-MB-435 18.7 µM | NCI-H522 17.9 µM | HOP-92 18.3 µM | TK-10 23.8 µM | A498 30.3 µM | EKVX 17.2 µM | KM12 20.5 µM | A549 32.5 µM | OVCAR-5 18.7 µM | HCT-116 16.2 µM | RPMI-8226 28.8 µM | MOLT-4 31.5 µM | SK-OV-3 32.8 µM | MDA-N 19 µM | NCI/ADR-RES 23.9 µM | U-251 18 µM | M14 18.2 µM | T47D 16.4 µM | SW-620 18.8 µM | SN12C 28.4 µM | Malme-3M 16.7 µM | OVCAR-3 27.8 µM | PC-3 17.7 µM | HOP-62 16.9 µM | OVCAR-8 39 µM | COLO 205 13.3 µM | DU-145 35.2 µM | UO-31 21.2 µM | LOX IMVI 16.4 µM | HT-29 14.5 µM | SF-295 19.5 µM | MDA-MB-231 17.3 µM | HL-60 46.1 µM | IGROV-1 21.1 µM
15.5 µM: HCT-15
